Measurements as given in article PMC12024193, “Engineered Lysin-Derived Peptide as a Potent Antimicrobial for Acne Vulgaris” (Antibiotics, 2025).

What was measured:
S. aureus strain USA300 = test: One-hour killing assay with or without retinoic acid; assay type: cell-based, Staphylococcus aureus; conditions: MRSA USA300, 1 h, Tris pH 7.2, 37 °C, triplicate
Method: (§1) Unless stated otherwise, the standard conditions for killing assays involved statically treating exponential phase bacteria at approximately 5 × 10^5 CFU/mL with a lysin-derived peptide at 25 μg/mL in a 96-well microtiter plate under aerobic (S. aureus) or anaerobic conditions (C. acnes and S. aureus) in 20 mM Tris (Fisher Scientific), pH 7.2, for 1 h at 37 °C. For dose–response killing assays, peptide concentrations ranging from 1 up to 125 μg/mL were tested.
For measuring the effect of retinoid on peptide bactericidal activity, S. aureus strain USA300 at 10^6 CFU/mL was treated with or without P156 at 25 μg/mL in buffer supplemented with all-trans-retinoic acid (Sigma-Aldrich) at 0.01–0.1% (w/v).
Each killing assay comprised an untreated control (bacteria absent peptide) for every condition tested. After 1 h, 100 μL directly from the sample, as well as 5 μL of each dilution from a 10-fold serial dilution, were plated on either TSB agar (for S. aureus killing assays using aerobic conditions), rTSB agar (for S. aureus killing assays using anaerobic conditions), or rTSB agar with 2% glycerol (for C. acnes killing assays) in order to quantitate bacterial viability. The LOD for each experiment was 10 CFU/mL, with one exception. […] For statistical analysis, p-values were calculated using an unpaired t-test due to each lysin or peptide dose being compared individually to the untreated group. […]

C. acnes = test: One-hour killing assay against C. acnes (dose-response; temperature, pH and NaCl variations); assay type: cell-based, Cutibacterium acnes
Method: (§2) Bacterial strains used in this study are outlined in Table 2 and were stored at −80 °C. C. acnes strains were grown in a BACTRON900 anaerobic chamber (Sheldon Manufacturing Inc., Cornelius, OR, USA) at 37 °C to exponential phase in reduced Trypticase Soy Broth (rTSB, BD Biosciences, Franklin Lakes, NJ, USA) supplemented with 2% (v/v) glycerol. S. aureus strains were grown either aerobically or anaerobically at 37 °C to the exponential phase in TSB (aerobic growth) or rTSB (anaerobic growth).
as §1
To evaluate the effect salt has on the antibacterial activity of the peptide, C. acnes strain ATCC 6919 was treated with P156 in buffer supplemented with 0-500 mM NaCl. The bactericidal potency of P156 in a broad pH range was assayed by treating C. acnes strain ATCC 6919 with the peptide in either 20 mM 2-(N-morpholino) ethanesulfonic acid (MES, pH 5.5–6.5; Fisher Scientific), sodium phosphate buffer (NaPO4, pH 6.5–7.0), or Tris (pH 7.0–8.0).
(§3) Temperature-based killing assays were performed by initially thawing a frozen aliquot of P156, which was then stored at 4 °C for a month. This was the only experiment where an aliquot of a lysin-derived peptide was stored for an extended period of time at a temperature other than −80 °C. Next, C. acnes strain ATCC 6919 was treated with the above-mentioned P156 aliquot in buffer at 15 °C to 40 °C. For these experiments, separate aliquots of both the bacteria at 10^6 CFU/mL and peptide at 50 μg/mL were initially equilibrated to the temperature being assayed for 5 min in 1.7 mL microcentrifuge tubes using an EchoTherm chilling/heating plate (Torrey Pines Scientific, Carlsbad, CA, USA). The bacteria and peptide were then mixed together 1:1 in a microcentrifuge tube, yielding respective final concentrations of 5 × 10^5 CFU/mL and 25 μg/mL, and subsequently incubated in the chilling/heating plate for 1 h.
(§4) Each killing assay comprised an untreated control (bacteria absent peptide) for every condition tested. After 1 h, 100 μL directly from the sample, as well as 5 μL of each dilution from a 10-fold serial dilution, were plated on either TSB agar (for S. aureus killing assays using aerobic conditions), rTSB agar (for S. aureus killing assays using anaerobic conditions), or rTSB agar with 2% glycerol (for C. acnes killing assays) in order to quantitate bacterial viability. The LOD for each experiment was 10 CFU/mL, with one exception. For the dose–response killing assay evaluating the collection of peptides against C. acnes, only the 10-fold serial dilutions from each sample were plated, resulting in an LOD of 200 CFU/mL. Experiments performed under anaerobic conditions used agar plates that were reduced overnight. Additionally, buffers for these particular assays were made fresh the day of the experiment and reduced for 2 h prior to use. Error bars correspond to the standard error of the mean (SEM) of two or three biological replicates. For statistical analysis, p-values were calculated using an unpaired t-test due to each lysin or peptide dose being compared individually to the untreated group. Additionally, to ensure clarity in presenting statistical significance, we used three types of statistical markers to highlight differences: ns, not significant, * p < 0.05 and a <3-log CFU reduction (with respect to the untreated group), ** p < 0.05 and a ≥3-log CFU reduction (with respect to the untreated group).

S. aureus = test: One-hour killing assay against S. aureus (aerobic or anaerobic growth); assay type: cell-based, Staphylococcus aureus; conditions: 20 mM Tris, pH 7.2, 1 h, 37 °C
Method: as §2, §1, §4

[1] = tested on: C. acnes strain ATCC 6919; test: Time-kill assay; assay type: cell-based, Cutibacterium acnes; conditions: 25 μg/mL, 20 mM Tris, pH 7.2, 37 °C, three biological replicates
Method: Using an EchoTherm chilling/heating plate, separate aliquots of both C. acnes strain ATCC 6919 at 10^6 CFU/mL and P156 at 50 μg/mL in 20 mM Tris, pH 7.2, were equilibrated to 37 °C for 10 min in 1.7 mL microcentrifuge tubes. The bacteria and peptide were then combined 1:1 in a microcentrifuge tube to obtain final concentrations of 5 × 10^5 CFU/mL and 25 μg/mL, respectively. An untreated control (bacteria without peptide) was also included. The samples were incubated for a total of 30 min at 37 °C. At 1, 5, 10, 15, 20, 25 and 30 min, an aliquot was removed. Both 100 μL directly from the sample, as well as 5 μL of each dilution from a 10-fold serial dilution, were plated on rTSB agar supplemented with 2% (v/v) glycerol in order to assess bacterial viability. The LOD was 10 CFU/mL. Error bars correspond to ±SEM of three biological replicates. For statistical analysis, p-values were calculated using an unpaired t-test between the untreated group and the peptide-treated group at each time point. ** p < 0.05 and a ≥3-log CFU reduction (with respect to the untreated group).

[2] = tested on: C. acnes strain ATCC 6919; test: Storage stability: bactericidal activity after thawing from -80 °C and four weeks at 4 °C; assay type: physicochemical, Cutibacterium acnes; conditions: thawed from -80 °C, stored four weeks at 4 °C; read-out bactericidal activity at 25 μg/mL against C. acnes ATCC 6919
Method: as §3

[3] = 25 μg/mL, ATCC 6919, 1 h, 37 °C

| Compound | antibacterial effect of retinoic acid alone on S. aureus (S. aureus strain USA300; 0.01-0.1% retinoic acid) | log reduction of bacterial counts at each temperature assayed (C. acnes; 25 μg/mL, ATCC 6919, 15-40 °C, 1 h, peptide stored four weeks at 4 °C) [logs] | bactericidal effect at elevated pH levels (up to 7.6) (C. acnes; [3]) | bactericidal effect within pH 6-7 (C. acnes; [3]) | log reduction of C. acnes populations in 50 mM NaCl (C. acnes; [3]) [logs] | log CFU reduction (below LOD) at under 25 mM NaCl / lower salt concentrations (C. acnes; 25 μg/mL, ATCC 6919, 1 h, 37 °C, LOD 10 CFU/mL) [log CFU] | log reduction of C. acnes CFU counts (below LOD) at 20 °C to 40 °C (C. acnes; 25 μg/mL, ATCC 6919, 1 h, peptide stored four weeks at 4 °C, LOD 10 CFU/mL, triplicate) [logs] | antibacterial activity at high salt concentrations (C. acnes; 25 μg/mL, ATCC 6919, NaCl, 1 h, 37 °C) | log reduction of CFU counts at ≤50 mM NaCl (C. acnes; 25 μg/mL, ATCC 6919, buffer supplemented with NaCl, 1 h, 37 °C, triplicate) [log CFU] | log kill of all C. acnes strains tested (C. acnes; peptide at 5 μg/mL, seven strains, 20 mM Tris, pH 7.2, 1 h, 37 °C) [log] | log CFU reduction of all C. acnes strains (below LOD) (C. acnes; peptide at 25 μg/mL, 20 mM Tris, pH 7.2, 1 h, 37 °C) [log CFU] | concentration lowering the viability of all C. acnes strains below the LOD (C. acnes; seven strains, 20 mM Tris, pH 7.2, 1 h, 37 °C, LOD 200 CFU/mL, duplicate) [µg/mL] | lowest concentration reducing CFU counts of all S. aureus strains below the LOD (S. aureus; aerobic, strains 8325, USA300, USA400, LOD 10 CFU/mL) [µg/mL] | log kill of all S. aureus strains tested (S. aureus; peptide at 5 μg/mL) [log] | log CFU reduction of all S. aureus strains (below LOD) (S. aureus; peptide at 25 μg/mL) [log CFU] | log kill of MRSA strain USA300 grown under anaerobic conditions (S. aureus; peptide at 25 μg/mL, anaerobic, LOD 10 CFU/mL, triplicate) [log] | log reduction in bacterial CFU in 10 min [1] [log] | log reduction in bacterial CFU within 1 min [1] [log] | stability after four weeks of storage at 4 °C [2] | log CFU reduction of S. aureus in the presence of 0.01-0.1% retinoic acid (S. aureus strain USA300; P156 at 25 μg/mL, LOD 10 CFU/mL) [log CFU] |
| --- | --- | --- | --- | --- | --- | --- | --- | --- | --- | --- | --- | --- | --- | --- | --- | --- | --- | --- | --- | --- |
| CC1=C(/C=C/C(C)=C/C=C/C(C)=C/C(=O)O)C(C)(C)CCC1 [retinoic acid, all-trans-retinoic acid, reference compound] | no antibacterial effect | – | – | – | – | – | – | – | – | – | – | – | – | – | – | – | – | – | – | – |
| RRKAKAPRAEIYAQFNKWVYAGGKKLSGLVKRRRR [Peptide P156, variant peptide engineered by adding arginine residues at both the N- and C-terminal ends of the parental peptide PiP01] | – | > 4 | able to eradicate C. acnes | complete bacterial eradication | 3 | > 4 | > 5 | lack of antibacterial activity | > 3 | ≥ 3 | > 4 | ≥ 5 | 5 | ≥ 3 | > 4 | > 5 | > 5 | > 3 | remains stable and active | > 5 |
